Source: patent US10307411B2, “Use of cotinine in treating or preventing neurogenesis deficits and enhancing neurogenesis” (Department of Veterans Affairs, priority 2014, dated 2019)

What was measured:
Assay type in all cases: in vivo
VEGF = assay: Western blot of VEGF in hippocampus of mice subjected to repetitive forced swim stress
Experimental: Mice pretreated with 5 mg/kg of cotinine (Cot 5) or vehicle (Veh) were exposed to repetitive 6-min forced swim (FS) daily for 6 days (a) to under continuous treatment. Following testing, mice were euthanized and the levels of VEGF and β-tubulin in the hippocampus were analyzed by Western blot. The plots represent VEGF immunoreactivity (IR) values in the hippocampus of mice. […] Mice pretreated with 5 mg/kg of cotinine (Cot 5) or vehicle (Veh) were exposed to repetitive 6-min forced swim (FS) daily for 6 days (a) to under continuous treatment or controls, not subjected to the forced swim (NES). Following resting, mice were euthanized and the levels of VEGF and β-tubulin in the hippocampus were analyzed by Western blot. The plots represent VEGF immunoreactivity (IR) values in the hippocampus of mice. […] The Western blot analysis investigated the expression of VEGF (FS mice: n=8-1O/group; NES mice: n=4-5/group). […] Brain tissues were then disrupted by sonication in cold lyses buffer (Cell Signaling Technology, Danver, Mass., USA) containing a complete protease inhibitor cocktail (Roche Molecular Biochemicals). After sonication, brain extracts were incubated on ice for 30 min and centrifuged at 20,000×g for 30 min at 4° C. Protein concentrations of supernatants were measured using the Bio-Rad protein assay (Bio-Rad, Hercules, Calif., USA). Equal amounts of protein were separated by gradient (4-20%), SOS-PAGE, then transferred to nitrocellulose membranes (BA83 0.2 μM; Bio-Rad). The membranes were blocked in TBS with 0.1% Tween 20 (TBST) containing 5% dry skim milk for 1 h. Membranes were incubated with primary antibodies in TBST overnight at 4° C. and with secondary antibodies for 1 h at room temperature (RT) in a blocking buffer. […] Images were acquired using an Odyssey Infrared Imaging System (Ll-COR Biosciences) and analyzed using the NIH Image J software. To analyze the group and treatment effects, differences between group means in the behavioral analyses were assessed using two-way analysis of variance (ANOVA) and post hoc Tukey test. […]

[1] = tested on: inflammation genes in the hippocampus of stressed mice; assay: Inflammatory response and Autoimmunity PCR array (RT-PCR) on hippocampus of mice subjected to forced swimming stress
From the text: (§1) Two-month-old male C57BU6J mice (The Jackson Laboratory, Bar Harbor, Me.), weighing 25-30 g were maintained on a 12-hours light/dark cycle (light on at 07:00) with ad libitum access to food and water and maintained at a regulated temperature of 25±1″C. Upon arrival mice were group-housed and acclimated for 7 days before any intervention.
(§2) Mice were randomly divided into three groups as follows: group 1 controls that were not exposed to stress (NES) and treated with vehicle (phosphate buffered saline, PBS); group 2 controls subjected to forced swimming stress (FSB) and treated with vehicle; group 3 subjected to forced swimming stress and treated with cotinine (FSA).
(§3) Cotinine ((5S)-1-methyl-5-(3-pyridyl) pyrrolidin-2-one; Sigma-Aldrich Corporation, St. Louis, Mo., USA) solutions were prepared by dissolving the powdered compound in sterile phosphate buffered saline (PBS), and vehicle (PBS). Mice were treated with vehicle or cotinine (5 mg/kg) via gavage. […] All investigators were blind to treatment groups and doses were chosen based on previously studies (Zeitlin, et al., (2012) Cotinine enhances the extinction of contextual fear memory and reduces anxiety after fear conditioning. Behav Brain Res, 228, 284-293.). Treatments were administered for 7 days before the induction of stress. For all animals, treatment continued from the onset of treatment until euthanasia.
(§4) To induce chronic stress, mice were subjected to repetitive forced swimming (FS) for six consecutive days, for six minutes each day, as described previously (Furukawa-Hibi, et al., (2011) The hydrophobic dipeptide Leu-lie inhibits immobility induced by repeated forced swimming via the induction of BDNF. Behav Brain Res. 2011 Jul. 7; 220(2):271-280). Each mouse was placed in an inescapable transparent plastic cylinder (40 centimeters (cm) high×20 cm in diameter) filled with water to a depth of 30 cm, for six minutes. Water temperature was maintained at 24-25° C. and water was changed between all trials. In all cases, following exposure, animals were retrieved, dried with a hand towel and returned to their home cages. Mice assigned to NES control group were removed from the animal housing facility and taken to the behavioral testing room during the same period of time than FS mice, but remained in their home cages during the FS period. In all experiments, no mice needed assistance to avoid drowning.
(§5) Following behavioral experimentation, euthanasia was performed via cervical dislocation under anesthesia with isofluorane (4% induction, 2% maintenance) by investigators not assigned to prior work with the mice blinded to the treatments. Whole brains were collected and immediately stored frozen at −80° C.
(§6) The hippocampi were dissected on ice and placed into RNAlater tubes (Life Technologies; Thermo Fisher Scientific, Waltham, Mass.). RNAlater is a proprietary solution which protects RNA in tissue samples from degradation to allow for analysis at a later date. RNase free conditions were created and maintained throughout the procedure by washing labware in a 0.1% DEPC solution followed by rinsing with RNase free water. Total RNA extraction and purification was performed using RNeasy Lipid Tissue Extraction Kit (Qiagen N.V., Venlon NL). Sample homogenization was performed using Kontes Pellet Pestle Cordless Motor and/or 20 gauge needle and syringe. Samples were extracted using a Qiazol/Chloroform extraction. The samples were purified on an RNeasy spin column using multiple washes. An on-column DNase incubation was performed in order to remove contaminating DNA. The entire extraction and purification step was performed twice to remove all contaminating DNA for samples ran on the neurogenesis arrays. Samples were eluted in RNase free water.
(§7) Nucleic acid quantification was performed on the RNA, to determine how many microliters of sample to add to the cDNA reaction, as the reaction requires a specific concentration of RNA to achieve optimal results. […]

[2] = tested on: neurogenesis genes in the hippocampus of mice; assay: Neurogenesis and neural stem cell RT-PCR array on hippocampus of mice subjected to forced swimming stress
From the text: as §1, §2, §3, §4, §5, §6, §7

[3] = hippocampus, forced swimming stress, cotinine 5 mg/kg gavage vs stressed vehicle-treated (FSB)
[4] = stressed mouse, cotinine vs vehicle
[5] = stressed mice treated with cotinine compared to stressed mice treated with vehicle

## CN1C(=O)CC[C@H]1c1cccnc1 [cotinine, (5S)-1-methyl-5-(3-pyridyl) pyrrolidin-2-one]
VEGF; FS mice, cotinine 5 mg/kg, compared with non-stressed mice
  VEGF protein expression in the hippocampus vs NES mice: not significantly different
VEGF; FS mice, cotinine 5 mg/kg, normalized to β-tubulin
  VEGF protein expression in the hippocampus vs vehicle-treated FS mice: significantly higher levels of VEGF expression
VEGF; non-stressed mice, cotinine vs vehicle, t=0.2910, p=0.7795
  VEGF protein expression in the absence of stress: no changes in VEGF expression
[1]; cut off of two-fold difference, stressed mouse treated with cotinine versus stressed mouse treated with vehicle
  number of inflammation genes differentially expressed: 10 genes
[1]; forced swimming + cotinine compared to forced swimming + vehicle
  Fos expression decreased by: 2.5 fold
[1]; forced swimming + cotinine compared to stressed mouse treated with vehicle
  Complement component 3 (C3) decreased by: 2.9 fold
[1]; [3]
  C3 (Complement component 3) Fold regulation comparing to FSB: −2.89 fold
  Ccl1 (Chemokine (C-C motif) ligand 1) Fold regulation comparing to FSB: 2.21 fold
  Ccl2 (Chemokine (C-C motif) ligand 2) Fold regulation comparing to FSB: 2.46 fold
  Ccl3 (Chemokine (C-C motif) ligand 3) Fold regulation comparing to FSB: −4.00 fold
  Ccr2 (Chemokine (C-C motif) receptor 2) Fold regulation comparing to FSB: −2.87 fold
  Ccr4 (Chemokine (C-C motif) receptor 4) Fold regulation comparing to FSB: 2.96 fold
  Fos (FBJ osteosarcoma oncogene) Fold regulation comparing to FSB: −2.55 fold
  Nos2 (Nitric oxide synthase 2, inducible) Fold regulation comparing to FSB: −3.93 fold
  Tlr1 (Toll-like receptor 1) Fold regulation comparing to FSB: 2.32 fold
  Tnfsf14 (Tumor necrosis factor (ligand) superfamily, member 14) Fold regulation comparing to FSB: 6.18 fold
[1]; stressed mice treated with cotinine vs stressed vehicle, hippocampus
  inflammation genes analyzed that were down-regulated: 61%
[1]; [4]
  Ccl3 change (down regulated by cotinine): 2.8 fold
  Ccr2 change (down regulated by cotinine): 4.0 fold
[2]; FSA versus stressed vehicle-treated, each compared to non-stressed mice
  decrease in share of down-regulated neurogenesis genes: 17%
[2]; forced swimming stress + cotinine (FSA) compared to mice not exposed to stress
  neurogenesis genes down-regulated: 56%
[2]; hippocampi from cotinine-treated stressed mice compared to vehicle-treated stressed mice
  neurogenesis genes analyzed that were up regulated: 67%
[2]; hippocampus of cotinine-treated FS mice compared to vehicle-treated FS mice (p<0.01)
  VEGFa mRNA expression, RT-PCR assay: up-regulated
[2]; results from all three comparisons, 1.3-fold cut-off with opposite effect by cotinine
  number of neurogenesis genes with differential regulation: 15 genes
[2]; stressed mice treated with cotinine compared to stress control mice
  Errb2 expression up regulation: 1.3 fold
[2]; [5]
  Artn expression up regulation: 1.2 fold
  EGF expression up regulation: 1.5 fold
  Gdnf expression up regulation: 2.0 fold
  VEGFa expression up regulation: 1.3 fold
